Experimental data taken from patent US12404304B1, “Telomerase reverse transcriptase (TERT) expression enhancing compounds and methods for using the same” (Sierra Sciences, LLC, priority 2007, dated 2025).

Experiments:
viable cells in culture = assay: Cell viability assay (CellTiter-Glo Luminescent Cell Viability Assay, ATP quantitation, percent of vehicle control)
[1] = tested on: human TERT expression (hTERT mRNA); assay: Quantitative real-time RT-PCR of hTERT mRNA expression (Ct, transcripts) in compound-treated cells; assay type: cell-based; conditions: quantitative real-time RT-PCR
Description: Telomerase is a ribonucleoprotein complex composed of the catalytic protein subunit (human telomerase reverse transcriptase or hTERT) and the RNA template. hTERT expression level can be measured by PCR.
Briefly, amplification of the target sequence is monitored per PCR cycle by detecting the fluorescence signal emitted by an internal probe that is degraded by the 5′ nuclease activity of the Taq polymerase. The emission signal accumulates in each sample, and the Ct required to reach a given fluorescence threshold is determined (Ct stands for Cycle Threshold and is a measure of the number of PCR cycles that are required to amplify a target—thus, a lower Ct score means that there is more abundant hTERT mRNA). Thus, the Ct value of a sample inversely correlates to the quantity of the starting cDNA which correlates to the number of mRNA transcripts. Using the cDNA of known quantity, a standard curve can be generated and used to determine the starting amount of mRNA transcripts based on the […] of each sample.
Quantitative real-time PCR can be done on cDNA from test compound-treated and nontreated cells by use of a ABI Prism 7900 Sequence Detection System (PE Applied Biosystems, Foster City, CA) following the Assays-on-Demand protocol (PE Applied Biosystems, Foster City, CA). Quantitative data can be analyzed using the Sequence Detection System software version 2.1 (PE Applied Biosystems).
The following compounds were tested in assays designed to identify compounds that enhance human TERT expression.

Row | SMILES | Average Cell Viability after 24 Hours (% DMSO) (viable cells in culture) | Average Number of hTERT Transcripts [1]
1 | CCCC(=O)NC(c1ccc(SC)cc1)c1ccc2cccnc2c1O (stereo not drawn) [compound 1010] | 86.63 % DMSO | 35.70
2 | COc1cc(NS(=O)(=O)c2cc(Cl)ccc2Cl)c2ncccc2c1 [compound 1026] | 52.03 % DMSO | 11.55
3 | CC(=O)NC(c1ccc(N(C)C)cc1)c1cc(Cl)c2cccnc2c1O (stereo not drawn) [compound 1059] | 53.52 % DMSO | 26.79
4 | COc1ccc(C(NC(=O)CC(C)C)c2ccc3cccnc3c2O)cc1OC (stereo not drawn) [compound 1076] | 62.85 % DMSO | 61.45
5 | Cc1cn(-c2ccc3c(Cl)cc(Cl)c(O)c3n2)nc1C [compound 1079] | 71.22 % DMSO | 98.36
6 | Cc1ccnc(NC(c2cccc(Cl)c2)c2ccc3ccc(C)nc3c2O)c1 (stereo not drawn) [compound 1080] | 72.44 % DMSO | 
7 | Cc1ccnc(NC(c2ccc([N+](=O)[O-])cc2)c2ccc3ccc(C)nc3c2O)c1 (stereo not drawn) [compound 1081] | 70.69 % DMSO | 18.87
8 | Oc1c(C(Nc2ccccn2)c2ccc(Cl)c(Cl)c2)ccc2cccnc12 (stereo not drawn) [compound 1082] | 56.92 % DMSO | 
9 | Cc1ccnc(NC(c2cccc(Br)c2)c2ccc3ccc(C)nc3c2O)c1 (stereo not drawn) [compound 1083] | 74.39 % DMSO | 
10 | Cc1ccnc(NC(c2cccc([N+](=O)[O-])c2)c2ccc3ccc(C)nc3c2O)c1 (stereo not drawn) [compound 1084] | 65.08 % DMSO | 11.54
11 | Oc1c(CN2CCN(Cc3ccc4cccnc4c3O)CC2)ccc2cccnc12 [compound 1085] | 61.83 % DMSO | 59.41
12 | O=C(NC(c1ccccc1)c1ccc2cccnc2c1O)c1ccccc1 (stereo not drawn) [compound 1086] | 56.53 % DMSO | 
13 | CC(C)C(=O)NC(c1ccco1)c1ccc2cccnc2c1O (stereo not drawn) [compound 1087] | 72.33 % DMSO | 
14 | Cc1ccc(C(NC(=O)C(C)C)c2ccc3cccnc3c2O)cc1 (stereo not drawn) [compound 1088] | 55.87 % DMSO | 
15 | CCN1CCN(Cc2ccc3cccnc3c2O)CC1 [compound 1089] | 89.98 % DMSO | 
16 | CC(C)C(=O)NC(c1cccs1)c1cc(Cl)c2cccnc2c1O (stereo not drawn) [compound 1090] | 27.89 % DMSO | 29.08
17 | Cc1ccc(S(=O)(=O)Nc2ccc(O)c3ncccc23)cc1 [compound 1091] | 94.30 % DMSO | 
18 | Cc1ccc(S(=O)(=O)Nc2cc(Cl)c(O)c3ncccc23)cc1 [compound 1092] | 66.43 % DMSO | 
19 | Cc1ccc(S(=O)(=O)Nc2cc(S(=O)(=O)c3ccc(C)cc3)c(O)c3ncccc23)cc1 [compound 1093] | 66.50 % DMSO | 
20 | Oc1c(C(Nc2ccccn2)c2ccccc2Cl)ccc2cccnc12 (stereo not drawn) [compound 1094] | 56.64 % DMSO | 32.08

Row | SMILES | Average Cell Viability after 24 Hours (% DMSO) (viable cells in culture) | Average Number of hTERT Transcripts [1]
21 | Oc1c(C(Nc2ccccc2Cl)c2ccccn2)ccc2cccnc12 (stereo not drawn) [compound 1095] | 56.93 % DMSO | 
22 | CCN(CC)Cc1ccc(O)c2ncccc12 [compound 1096] | 67.13 % DMSO | 
23 | COCc1cc(CN2CCCC2)c(O)c2ncccc12 [compound 1097] | 78.08 % DMSO | 
24 | COCc1cc(CN2CCCCC2)c(O)c2ncccc12 [compound 1098] | 68.58 % DMSO | 
25 | CCOCc1cc(CN2CCCCC2)c(O)c2ncccc12 [compound 1099] | 64.22 % DMSO | 
26 | CCCOCc1cc(CN2CCCCC2)c(O)c2ncccc12 [compound 1100] | 56.10 % DMSO | 
27 | CCCOCc1cc(CN2CCN(C)CC2)c(O)c2ncccc12 [compound 1101] | 76.69 % DMSO | 
28 | CC(C)OCc1cc(CN2CCCCC2)c(O)c2ncccc12 [compound 1102] | 68.56 % DMSO | 
29 | CC1CCN(Cc2cc(COC(C)C)c3cccnc3c2O)CC1 [compound 1103] | 58.35 % DMSO | 
30 | Cc1cc(NC(c2ccccn2)c2ccc3cccnc3c2O)no1 (stereo not drawn) [compound 1104] | 71.14 % DMSO | 
31 | Cc1ccc2c(I)cc(I)c(O)c2n1 [compound 1105] | 58.63 % DMSO | 
32 | COc1ccc(-c2cc(O)n(-c3ccc([N+](=O)[O-])cc3)n2)cc1 [compound 1106] | 79.49 % DMSO | 68.17
33 | COc1ccc(C2=NN(c3nc4ccccc4s3)C(=O)C2)cc1 [compound 1107] | 98.68 % DMSO | 67.06
34 | Oc1cc(-c2ccccc2)nn1-c1nc2ccccc2[nH]1 [compound 1108] | 94.50 % DMSO | 79.20
35 | CC1=NN(c2nc3ccccc3s2)C(=O)C1CCC(C)C (stereo not drawn) [compound 1109] | 67.53 % DMSO | 35.79
36 | Oc1cc(-c2ccc(F)cc2)nn1-c1nc2ccccc2[nH]1 [compound 1110] | 100.67 % DMSO | 86.68
37 | CCCCc1c(C)nn(-c2nc3ccccc3[nH]2)c1O [compound 1111] | 47.04 % DMSO | 18.99
38 | Oc1c2c(nn1-c1nc3ccccc3[nH]1)CCCC2 [compound 1112] | 77.30 % DMSO | 112.20
39 | Oc1c2c(nn1-c1nc3ccccc3s1)CCCC2 [compound 1113] | 89.80 % DMSO | 66.98
40 | CCc1c(C)nn(-c2nc3ccccc3s2)c1O [compound 1114] | 89.40 % DMSO | 148.58

Row | SMILES | Average Cell Viability after 24 Hours (% DMSO) (viable cells in culture) | Average Number of hTERT Transcripts [1]
41 | CC1=NN(c2ccccc2)C(=O)C1C(=O)c1ccc(Br)cc1 (stereo not drawn) [compound 1115] | 81.68 % DMSO | 59.18
42 | Oc1cc(CSc2ccc(Cl)cc2)nn1-c1ccccc1 [compound 1116] | 75.26 % DMSO | 102.70
43 | Cc1c2c(=O)n(-c3nc4ccccc4s3)nc-2cc(O)n1Cc1ccccc1 [compound 1117] | 84.16 % DMSO | 57.88
44 | Cc1nnc(SCC2=NN(c3nc4ccccc4[nH]3)C(=O)C2)s1 [compound 1118] | 73.41 % DMSO | 54.45
45 | O=C1CC(CSc2nnnn2-c2ccccc2)=NN1c1nc2ccccc2[nH]1 [compound 1119] | 62.38 % DMSO | 125.15
46 | Cc1ccc(-c2cc(O)n(-c3nc4ccccc4[nH]3)n2)cc1 [compound 1120] | 52.50 % DMSO | 118.82
47 | Oc1cc(-c2ccc(Cl)cc2)nn1-c1nc2ccccc2[nH]1 [compound 1121] | 52.77 % DMSO | 119.73
48 | CCCC1=NN(c2ccc(Cl)cc2)C(=O)C1 [compound 1122] | 66.57 % DMSO | 13.40
49 | Cc1csc(-n2nc(C)c(CC(=O)Nc3ccc(Br)cc3)c2O)n1 [compound 1123] | 79.37 % DMSO | 58.23
50 | CCCCNC(=O)Cc1c(C)nn(-c2nc(C)c(C)s2)c1O [compound 1124] | 87.04 % DMSO | 34.96
51 | COc1cc([C@@H]2c3cc4c(cc3C(OC3O[C@@H]5COC(C)O[C@H]5[C@H](O)[C@H]3O)C3COC(=O)[C@@H]32)OCO4)cc(OC)c1O (stereo partly drawn) [compound 1224] |  | 89.52
52 | O=S1(=O)CCC(N2COc3c(cc(Cl)c4cccnc34)C2)C1 (stereo not drawn) [compound 1462] | 62.26 % DMSO | 
53 | Cc1ccc2ccc(C(Nc3ccccn3)c3ccccc3Br)c(O)c2n1 (stereo not drawn) [compound 1477] | 76.49 % DMSO | 
54 | O=C(CCc1ccccc1)NC(c1ccc(Cl)cc1)c1ccc2cccnc2c1O (stereo not drawn) [compound 1478] | 72.44 % DMSO | 
55 | CC(C)C(=O)NC(c1ccccc1)c1cc([N+](=O)[O-])c2cccnc2c1O (stereo not drawn) [compound 1479] | 68.20 % DMSO | 
56 | Cc1ccc2ccc(C(Nc3ccccn3)c3ccccc3Cl)c(O)c2n1 (stereo not drawn) [compound 1480] | 79.43 % DMSO | 
57 | COc1ccc(C(NC(=O)C(C)C)c2cc([N+](=O)[O-])c3cccnc3c2O)cc1OC (stereo not drawn) [compound 1481] | 78.30 % DMSO | 
58 | Oc1ccc(CN2CCN(c3cccc(Cl)c3)CC2)c2cccnc12 [compound 1482] | 80.49 % DMSO | 
